What was measured:
Canis familiaris [1] = species: Canis familiaris; assay: Ischemic myocardial residue fraction of [13N]-labeled amino acid was observed with a single pass uptake technique in open-chest instrumented dogs (control - 8.1+/-3.1); type: functional, Canis lupus familiaris
Canis familiaris [2] = species: Canis familiaris; assay: Ischemic myocardial half-life measured after intracoronary injection of [13N]-labeled amino acid in dogs (control - 114.1+/-26.5); type: ADME, organism-based, Canis lupus familiaris, Myocardium; details: dog, in vivo, other
Canis familiaris [3] = species: Canis familiaris; assay: Ischemic myocardial half-life measured after intracoronary injection of [13N]-labeled amino acid in dogs (control - 147+/-12); type: ADME, organism-based, Canis lupus familiaris; details: dog, in vivo, other
Canis familiaris [4] = species: Canis familiaris; assay: Ischemic myocardial residue fraction of [13N]-labeled amino acid was observed with a single pass uptake technique in open-chest instrumented dogs (control - 14+/-4.2); type: functional, Canis lupus familiaris
Canis familiaris [5] = species: Canis familiaris; assay: Ischemic myocardial residue fraction of [13N]-labeled amino acid was observed with a single pass uptake technique in open-chest instrumented dogs (control - 18.5+/-2.1); type: functional, Canis lupus familiaris
Canis familiaris [6] = species: Canis familiaris; assay: Ischemic myocardial half-life measured after intracoronary injection of [13N]-labeled amino acid in dogs (control - 88+/-2); type: ADME, organism-based, Canis lupus familiaris, Myocardium; details: dog, in vivo, other
Canis familiaris [7] = species: Canis familiaris; assay: Ischemic myocardial half-life measured after intracoronary injection of [13N]-labeled amino acid in dogs (control - 15.9+/-0.2); type: ADME, organism-based, Canis lupus familiaris, Myocardium; details: dog, in vivo, other
Canis familiaris [8] = species: Canis familiaris; assay: Ischemic myocardial residue fraction of [13N]-labeled amino acid was observed with a single pass uptake technique in open-chest instrumented dogs (control - 17.3+/-6.1); type: functional, Canis lupus familiaris

**Q.** What does the source list for N[C@@H](CCC(=O)O)C(=O)O [GLUTAMIC ACID]?
**A.** Residue fraction (Canis familiaris [1]): 11.5%; T1/2 (Canis familiaris [2]): 1.35 h

**Q.** For N[C@@H](CC(=O)O)C(=O)O [ASPARTIC ACID], which T1/2 (Canis familiaris [3]) is on record?
**A.** The T1/2 was 2.87 h.

**Q.** And the Residue fraction (Canis familiaris [4])?
**A.** The Residue fraction was 17%.

**Q.** With C[C@H](N)C(=O)O [ALANINE] as the compound, how does the Residue fraction (Canis familiaris [5]) read?
**A.** Its Residue fraction is 19.5%.

**Q.** And the T1/2 (Canis familiaris [6])?
**A.** Its T1/2 is 1.29 h.

**Q.** How did the T1/2 (Canis familiaris [7]) turn out when NC(=O)CC[C@H](N)C(=O)O [GLUTAMINE] was run?
**A.** Its T1/2 is 0.292 h.

**Q.** What about the Residue fraction (Canis familiaris [8]) of the same compound?
**A.** The Residue fraction was 20.5%.

Reference: ChEMBL document CHEMBL1121919, “13N-labeled L-amino acids for in vivo assessment of local myocardial metabolism” (J Med Chem, 1981)
